Series [1] has as its system human vascular smooth muscle cells (SMCs). The experiment in a line: XTT cell proliferation assay, smooth muscle cells. The note with it: for IC50: XTT assay after 72 h, mean of three independent experiments, read-out: IC50, SMC proliferation-inhibitory activity. Format: cell-based. From the text:
Human umbilical vein endothelial cells (HUVECs) were isolated from umbilical cords (kindly donated by the Gynecology and Obstetrics Department, Innsbruck Medical University) by enzymatic detachment using collagenase, as previously described; see Bernhard, FASEB J 17(15), 2302-4 (2003). Human umbilical vein smooth muscle cells (SMCs) were isolated from the same umbilical cords according to Chamley-Campbell, Physiol Rev 59(1), 1-61 (1979). SMCs were routinely passaged in 0.2% gelatine-coated (Sigma, Steinheim, Germany) polystyrene culture flasks (Becton Dickinson, Meylan Cedex, France) in Medium 231 (Cascade Biologics, Paisley, UK). The isolation and analysis of human umbilical cord ECs and SMCs has been approved by the Ethics Committee of the Innsbruck Medical University.
Cell proliferation was measured by the XTT cell proliferation assay (Biomol, Hamburg, Germany) as described by the manufacturer. The XTT assay is based on the ability of metabolic active cells to reduce the tetrazolium salt XTT to orange coloured compounds of formazan. The dye formed is water soluble and the dye intensity can be read at a given wavelength with a spectrophotometer. The intensity of the dye is proportional to the number of metabolic active cells. In addition to the XTT assay all proliferation-experiments were also evaluated by counting cells in a coulter counter.
As described above (Example 1) cell proliferation was measured by the XTT cell proliferation assay (Biomol, Hamburg, Germany) as described by the manufacturer. The XTT assay is based on the ability of metabolic active cells to reduce the tetrazolium salt XTT to orange coloured compounds of formazan. The dye formed is water soluble and the dye intensity can be read at a given wavelength with a spectrophotometer. The intensity of the dye is proportional to the number of metabolic active cells.
A general note: Formazan colour is commonly taken as a measure of viable cells.

Series [2] concerns primary human vascular endothelial cells (ECs). As to the kind of experiment: Metabolic protein labelling with 35S-methionine/cysteine in ECs. It is filed as cell-based. Here is the method: (§1) Primary human vascular endothelial cells (ECs) were incubated with the indicated concentrations of leoligin for the indicated times. […] Values shown are mean values from a representative experiment performed in triplicates. […] Values shown are mean values from three independent experiments+/−S.D. The impact of leoligin on TNFalpha-induced surface expression of VCAM-1, ICAM-1, and E-selectin (E-Sel) is shown in the three diagrams in FIG. 4C. Data shown are mean fluorescence intensities (MFI) of representative experiments. […] After protein preparation, total cellular proteins were separated on polyacrylamide gels, gel were dried and analysed by exposure to x-ray films.
Metabolic labelling with ^35S-methionine/cysteine was performed as previously described (Bernhard (2001), loc. cit.).

Another series concerns human saphenous veins. The experiment in a line: Human saphenous vein organ culture model of intimal hyperplasia. Particulars: added freshly every second day over 2 weeks. Here is the method:
(§2) Following fixation in 4% paraformaldehyde and dehydration of tissues from organ culture and mouse experimentation, tissues were embedded in paraffin (venae cavae from the in vivo experiments were embedded into mouse liver prior to fixation) and sections were prepared. Immunohistochemistry was performed with the Accustain Elastica Stain (HT25) kit (Sigma-Aldrich, USA) or the En Vision+System-HRP (DAB) (DakoCytomation, Denmark) according to the manufacturers instructions. Primary antibodies used were anti-p27/KIP-1 antibody (clone 57; BD Transduction Laboratories), and anti-CD31/PECAM-1 antibody (clone JC70A, Dako Cytomation). Image analyses were performed using the Image J software of the National Institute of Health (USA).

A further series has as its system p27/KIP. As to the kind of experiment: Western blot of p27/KIP in SMCs. It is filed as cell-based, human. Particulars: SMCs incubated 24 hours; shift from 27 kD to 58 kD signal. Here is the method: (§3) In order to investigate the effect of leoligin on the cellular level, isolated primary human vascular smooth muscle cells (SMCs) were incubated with the indicated concentrations of leoligin for the indicated times. […] Values shown are mean values from a representative experiment performed in triplicates. […] Values shown are mean values from three independent experiments+/−S.D. The histogram blots in FIG. 3C show the results from a DNA content analysis of control-treated or leoligin-treated SMCs after 24 hours of incubation (upper row, left histogram . . . solvent control; upper row, right histogram . . . leoligin).
Western blotting was performed as previously described; see Bernhard, Cell Death Differ 8(10), 1014-21 (2001). Primary antibodies used were anti-p27/KIP-1 antibody (clone 57; BD Transduction Laboratories).
(In general: In western blotting, separated proteins are transferred to a membrane and probed.)

In series [3] the test system is venous bypass graft intimal hyperplasia. As to the kind of experiment: Mouse model for vein graft disease (vena cava interposed into carotid artery). Format: in vivo. Here is the method:
Before wound closure after the transplantation, a peradventitial depot of 100 μl of 0.9% NaCl (control) or 100 μl of 100 μM leoligin in 0.9% NaCl were applied. After 4 weeks conduits were removed and subjected to morphometric analyses and to immunohistochemistry. FIG. 5B: the upper two images show a Elastica van Giesson stain of sections of the venous conduits. White arrows indicate neointimal thickness which was analysed by morphometry (see FIG. 5A). Central images display a staining for the endothelial cell CD31/PECAM-1 antigen (brown, black arrows) combined with a hematoxilin stain. […] The abbreviations “Lu” and “Li” stand for the full terms “lumen” and “liver”, respectively.
In the applied mouse model the vena cava of a donor mouse was interposed into the carotid artery of a recipient mouse. After transplantation and prior to wound closure a 100 μl depot of 0.9% NaCl (control group) or 100 μM leoligin in 0.9% NaCl (leoligin group) was placed around the adventitia of the vein graft in the recipient mouse. 4 weeks after the intervention mice were sacrificed and the interposed venae cavae were harvested for analyses. […] For details on the surgical procedure see Schachner, Eur J Cardiothorac Surg 30(3), 451-63 (2006); Schachner, Heart Surg Forum 9(1), E515-E517 (2006). Animal experiments were approved by the Commission for Animal Testing Affairs of the Austrian Ministry for Science and Research.
as §2

Series [4] relates to primary human vascular endothelial cells (ECs). The experiment in a line: Cell viability by annexin V/propidium iodide method and FACS, ECs. Particulars: 48 hours. It is filed as cell-based. Here is the method: as §1
(§4) For detection and/or quantification of cell death, forward/sideward light scattering analysis, the AnnexinV-propidium iodide method, and staining of nuclear DNA content (cell cycle analyses) were used as described; see Bernhard FASEB J 13(14), 1991-2001 (1999).

The test system of series [5] is VCAM-1. As to the kind of experiment: FACS analysis of TNFalpha-induced surface adhesion molecule expression on ECs. It is filed as cell-based, human. From the text: (§5) Values shown are mean values from a representative experiment performed in triplicates.
In general terms: Flow cytometry measures light scatter and fluorescence of single cells or particles in a stream.

The test system of series [6] is human vascular smooth muscle cells (SMCs). The experiment in a line: Nuclear DNA content (cell cycle) analysis, SMCs. Format: cell-based. The note with it: 24 hours of incubation. Here is the method: In order to investigate the effect of leoligin on the cellular level, isolated primary human vascular smooth muscle cells (SMCs) were incubated with the indicated concentrations of leoligin for the indicated times. […] Values shown are mean values from a representative experiment performed in triplicates.
as §4

The test system is the same in series [7]. As to the kind of experiment: Cell death by AnnexinV-propidium iodide method and FACS, SMCs. The note with it: after 48 hour. It is filed as cell-based. Here is the method: as §3, §4
The test system of series [8] is primary human vascular endothelial cells (ECs). As to the kind of experiment: XTT cell proliferation assay, endothelial cells. It is filed as cell-based.
Excerpt: as §5

In series [9] the test system is intimal hyperplasia after balloon injury. Particulars: in vivo; cited from earlier work.
Series [10] has as its system SMCs. The note with it: associated with upregulation of p21/WAF1; cited from earlier work.
Series [11] has as its system VCAM-1. The note with it: ECs; cited from earlier work.
The test system of series [12] is SMCs. The note with it: caspase-dependent manner; cited from earlier work.
The mark [13] stands for this setting: 100 μl of 100 μM leoligin, 4 weeks.

Like-named read-outs stand apart in the source and are kept apart here. Bounds are passed on as bounds.

For the molecule `COc1cc(C[C@H]2CO[C@H](c3ccc(O)c(OC)c3)[C@H]2CO)ccc1O` [lariciresinol, reference compound], the IC50 in series [1] (Homo sapiens) was greater than 100 µM.

`C/C=C(/C)C(=O)OC[C@H]1[C@@H](Cc2ccc(OC)c(OC)c2)CO[C@@H]1c1ccc(OC)c(OC)c1` [leoligin]: the “protein synthesis in ECs” value in series [2] is “does not block protein synthesis”. In addition, the “intimal hyperplasia of saphenous veins in organ culture” value with human saphenous veins (5 μM leoligin, p=0.003) is listed as “completely inhibited intimal hyperplasia”. For the same molecule, the “pre-existing intimal hyperplasia of saphenous veins in organ culture” value in the series on human saphenous veins (50 μM leoligin, p<0.001) was “even reversed pre-existing intimal hyperplasia”. In the series on p27/KIP, the “p27/KIP protein (Western blot)” value is “complete change in the appearance of p27/KIP protein”. For the same molecule, in [3] (setting [13]), the “endothelial layer (CD31 staining) of conduits” value is “intact” and the “neointimal thickness of vein grafts” value is on record as “significantly reduced neointimal thickness”. Besides, in series [3] (four weeks after the application), the “p27/KIP staining of graft sections” value is “stained positive for p27/KIP”. Also, the “animals with no blood flow due to thromboses after 4 weeks” value in [3] (of 7 animals per group (3 in control)) stood at 2. In [3] (periadvential reservoir 100 μl of 100 μM leoligin in 0.9% NaCl, 4 weeks), the “intimal hyperplasia in vivo” value was “potently inhibited intimal hyperplasia in vivo”. Moreover, the “toxic or cell death-inducing effect on ECs” value in series [4] is “no toxic or cell death-inducing effect”. Also, the “TNFalpha-mediated surface expression of VCAM-1” value with VCAM-1 [5] was “inhibited TNFalpha-mediated surface expression of VCAM-1”. For the same molecule, the “cell cycle distribution (nuclear DNA content)” value in [6] was “massive accumulation of cells in the G1-phase”. For the same molecule, the “cell death (apoptosis and necrosis) in SMCs” value in series [7] was “only a marginal increase in cell death”. Also, the IC50 in series [1] (Homo sapiens) stood at 54.5 µM. The “SMC proliferation (XTT assay, cell counting)” value in [1] (result in words) is reported as “significant SMC proliferation inhibitory effect”. For the same molecule, the “proliferation of ECs” value in [8] is recorded as “inhibited the proliferation of ECs”.

On to `COc1cc([C@@H]2c3cc4c(cc3[C@H](O)[C@H]3COC(=O)[C@@H]23)OCO4)cc(OC)c1OC` [picropodophyllin], for which, in series [9], the “intimal hyperplasia after balloon injury” value was “inhibits intimal hyperplasia after balloon injury in vivo”.

Turning to `C/C=C(/C)C(=O)OC[C@H]1[C@@H](Cc2ccc(O)c(OC)c2)CO[C@@H]1c1cc(OC)c(OC)c(OC)c1` [5-methoxy-leoligin], in [1] (Homo sapiens), the IC50 turned out to be 45.9 µM.

Consider `C=CCc1ccc(O)c(-c2ccc(O)c(CC=C)c2)c1` [Honokiol, honokiol], for which the “cell cycle in SMCs” value with SMCs [10] is on record as “arrest in the G1 phase of the cell cycle”.

As to `C=CCc1ccc(O)c(-c2cc(CC=C)ccc2O)c1` [Magnolol, magnolol], in the series with VCAM-1 [11], the “TNFalpha-mediated VCAM-1 expression” value is listed as “inhibit TNFalpha-mediated VCAM-1 expression”. Further, the “cell death in SMCs” value with SMCs [12] was “induce cell death in SMCs”.

As for `C/C=C(/C)C(=O)OC[C@H]1[C@@H](Cc2ccc(OC)c(OC)c2)CO[C@@H]1c1cc(OC)c(OC)c(OC)c1` [5-methoxy-leoligin], the IC50 in series [1] is 45.9 µM.

As for `C/C=C(/C)C(=O)OC[C@H]1[C@@H](Cc2cc(OC)c(OC)c(OC)c2)CO[C@@H]1c1cc(OC)c(OC)c(OC)c1` [5,5′-dimethoxy-leoligin], the IC50 in series [1] (Homo sapiens) was determined as 48.6 µM.

(Values after patent publication US9669000B2, “Pharmaceutical compositions comprising lignans and their derivatives for treating hyperplastic diseases” (Universität Innsbruck, priority 2008, dated 2017).)
